Measured values reported in PubChem BioAssay (NCI).
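Protocol summary: plate cells (96-well), add compound at 5 concentrations, incubate 48 h, interpolate endpoints linearly. TGI marks complete inhibition of growth.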

Columns and labels:
Experiment in all cases: growth of human tumour cells (NCI), 48 h
RXF 393 renal = test system: RXF 393 renal
SF-268 CNS = test system: SF-268 CNS
KM12 colon = test system: KM12 colon
HCT-116 colon = test system: HCT-116 colon
U251 CNS = test system: U251 CNS
UACC-62 melanoma = test system: UACC-62 melanoma
HL-60(TB) leukemia = test system: HL-60(TB) leukemia
UO-31 renal = test system: UO-31 renal
MCF7 breast = test system: MCF7 breast
OVCAR-5 ovarian = test system: OVCAR-5 ovarian
EKVX NSCLC = test system: EKVX NSCLC
SK-MEL-2 melanoma = test system: SK-MEL-2 melanoma
OVCAR-4 ovarian = test system: OVCAR-4 ovarian
SF-539 CNS = test system: SF-539 CNS
OVCAR-8 ovarian = test system: OVCAR-8 ovarian
BT-549 breast = test system: BT-549 breast
MDA-MB-231 breast = test system: MDA-MB-231 breast

O=C(O)c1ccccc1/C=C1/Cc2ccc3c(c2C1=O)CCC3
TGI (RXF 393 renal): > 100 µM
TGI (SF-268 CNS): > 100 µM
TGI (KM12 colon): > 100 µM
TGI (HCT-116 colon): > 100 µM
TGI (U251 CNS): > 100 µM
TGI (UACC-62 melanoma): > 100 µM
TGI (HL-60(TB) leukemia): 48 µM
TGI (UO-31 renal): > 100 µM
TGI (MCF7 breast): > 100 µM
TGI (OVCAR-5 ovarian): > 100 µM
TGI (EKVX NSCLC): > 100 µM
TGI (SK-MEL-2 melanoma): 44.9 µM
TGI (OVCAR-4 ovarian): > 100 µM
TGI (SF-539 CNS): 43.6 µM
TGI (OVCAR-8 ovarian): > 100 µM
TGI (BT-549 breast): 96.8 µM

OCC(O)COCn1cc(Cn2ncc3c(NCc4ccccc4)ncnc32)nn1 (stereo not drawn)
TGI (MDA-MB-231 breast): > 100 µM
TGI (SF-268 CNS): 32.8 µM
TGI (KM12 colon): > 100 µM
TGI (HCT-116 colon): > 100 µM
TGI (U251 CNS): > 100 µM
TGI (UACC-62 melanoma): > 100 µM
TGI (HL-60(TB) leukemia): > 100 µM
TGI (UO-31 renal): > 100 µM
TGI (MCF7 breast): > 100 µM
TGI (OVCAR-5 ovarian): > 100 µM
TGI (EKVX NSCLC): > 100 µM
TGI (SK-MEL-2 melanoma): > 100 µM
TGI (OVCAR-4 ovarian): > 100 µM
TGI (SF-539 CNS): > 100 µM
TGI (OVCAR-8 ovarian): > 100 µM
TGI (BT-549 breast): > 100 µM

O=C(c1ccccc1)N(CCCCNC(=O)C(F)(F)F)CCCNC(=O)C(F)(F)F
TGI (RXF 393 renal): > 100 µM
TGI (MDA-MB-231 breast): > 100 µM
TGI (SF-268 CNS): > 100 µM
TGI (KM12 colon): > 100 µM
TGI (HCT-116 colon): > 100 µM
TGI (U251 CNS): > 100 µM
TGI (UACC-62 melanoma): > 100 µM
TGI (HL-60(TB) leukemia): > 100 µM
TGI (UO-31 renal): > 100 µM
TGI (MCF7 breast): > 100 µM
TGI (OVCAR-5 ovarian): > 100 µM
TGI (EKVX NSCLC): > 100 µM
TGI (OVCAR-4 ovarian): > 100 µM
TGI (SF-539 CNS): > 100 µM
TGI (OVCAR-8 ovarian): > 100 µM
TGI (BT-549 breast): > 100 µM

CCOC(=O)C(NC(=O)c1cccc(Cl)c1)(Nc1ccc(S(=O)(=O)Nc2cc(C)nc(C)n2)cc1)C(F)(F)F (stereo not drawn)
TGI (MDA-MB-231 breast): > 100 µM
TGI (SF-268 CNS): > 100 µM
TGI (KM12 colon): > 100 µM
TGI (HCT-116 colon): > 100 µM
TGI (U251 CNS): > 100 µM
TGI (HL-60(TB) leukemia): > 100 µM
TGI (UO-31 renal): > 100 µM
TGI (MCF7 breast): > 100 µM
TGI (OVCAR-5 ovarian): > 100 µM
TGI (EKVX NSCLC): > 100 µM
TGI (SK-MEL-2 melanoma): > 100 µM
TGI (OVCAR-4 ovarian): > 100 µM
TGI (SF-539 CNS): > 100 µM
TGI (OVCAR-8 ovarian): > 100 µM

CCOP(=O)(Nc1ccc(-c2ccc(N)cc2)cc1)OCC
TGI (RXF 393 renal): 98.8 µM
TGI (MDA-MB-231 breast): > 100 µM
TGI (SF-268 CNS): > 100 µM
TGI (KM12 colon): > 100 µM
TGI (HCT-116 colon): > 100 µM
TGI (U251 CNS): > 100 µM
TGI (UACC-62 melanoma): > 100 µM
TGI (UO-31 renal): > 100 µM
TGI (MCF7 breast): > 100 µM
TGI (OVCAR-5 ovarian): > 100 µM
TGI (EKVX NSCLC): > 100 µM
TGI (SK-MEL-2 melanoma): > 100 µM
TGI (OVCAR-4 ovarian): > 100 µM
TGI (OVCAR-8 ovarian): > 100 µM
TGI (BT-549 breast): > 100 µM

[N-]=[N+]=Nc1c(-c2ccccc2)c(=O)n(-c2ccccc2)c2ccccc12
TGI (RXF 393 renal): > 100 µM
TGI (MDA-MB-231 breast): > 100 µM
TGI (SF-268 CNS): 62.3 µM
TGI (KM12 colon): > 100 µM
TGI (HCT-116 colon): > 100 µM
TGI (U251 CNS): > 100 µM
TGI (UACC-62 melanoma): > 100 µM
TGI (HL-60(TB) leukemia): > 100 µM
TGI (UO-31 renal): > 100 µM
TGI (MCF7 breast): > 100 µM
TGI (EKVX NSCLC): 48.8 µM
TGI (OVCAR-4 ovarian): > 100 µM
TGI (SF-539 CNS): > 100 µM
TGI (OVCAR-8 ovarian): > 100 µM
TGI (BT-549 breast): > 100 µM

COc1cc(NC(C)=O)ccc1C(=O)N/N=C/c1ccco1
TGI (RXF 393 renal): > 100 µM
TGI (SF-268 CNS): > 100 µM
TGI (KM12 colon): > 100 µM
TGI (HCT-116 colon): > 100 µM
TGI (UACC-62 melanoma): > 100 µM
TGI (HL-60(TB) leukemia): > 100 µM
TGI (UO-31 renal): > 100 µM
TGI (MCF7 breast): > 100 µM
TGI (OVCAR-5 ovarian): > 100 µM
TGI (EKVX NSCLC): > 100 µM
TGI (SK-MEL-2 melanoma): > 100 µM
TGI (OVCAR-4 ovarian): > 100 µM
TGI (SF-539 CNS): > 100 µM
TGI (OVCAR-8 ovarian): > 100 µM
TGI (BT-549 breast): > 100 µM

COc1ccc(N/N=C/C2=CC(C)(C)C(C#N)(C#N)C(O)=C2C#N)cc1
TGI (RXF 393 renal): > 100 µM
TGI (MDA-MB-231 breast): > 100 µM
TGI (SF-268 CNS): > 100 µM
TGI (KM12 colon): > 100 µM
TGI (HCT-116 colon): > 100 µM
TGI (U251 CNS): > 100 µM
TGI (UACC-62 melanoma): > 100 µM
TGI (HL-60(TB) leukemia): > 100 µM
TGI (UO-31 renal): > 100 µM
TGI (MCF7 breast): > 100 µM
TGI (OVCAR-5 ovarian): > 100 µM
TGI (EKVX NSCLC): > 100 µM
TGI (SK-MEL-2 melanoma): > 100 µM
TGI (OVCAR-4 ovarian): > 100 µM
TGI (SF-539 CNS): > 100 µM
TGI (OVCAR-8 ovarian): > 100 µM

CCOC(=O)[C@@H](NC(=O)OC(C)(C)C)[C@@H](O)C(=O)OCC
TGI (RXF 393 renal): > 100 µM
TGI (MDA-MB-231 breast): > 100 µM
TGI (SF-268 CNS): > 100 µM
TGI (KM12 colon): > 100 µM
TGI (HCT-116 colon): > 100 µM
TGI (U251 CNS): > 100 µM
TGI (UACC-62 melanoma): > 100 µM
TGI (HL-60(TB) leukemia): > 100 µM
TGI (UO-31 renal): > 100 µM
TGI (MCF7 breast): > 100 µM
TGI (OVCAR-5 ovarian): > 100 µM
TGI (EKVX NSCLC): > 100 µM
TGI (SK-MEL-2 melanoma): > 100 µM
TGI (OVCAR-4 ovarian): > 100 µM
TGI (OVCAR-8 ovarian): > 100 µM
TGI (BT-549 breast): > 100 µM

CN(/N=C/c1ccc(Cl)c(Cl)c1)C1=NCCCCN1
TGI (MDA-MB-231 breast): > 100 µM
TGI (SF-268 CNS): > 100 µM
TGI (KM12 colon): 47.5 µM
TGI (HCT-116 colon): 79.4 µM
TGI (U251 CNS): > 100 µM
TGI (UACC-62 melanoma): 52.8 µM
TGI (HL-60(TB) leukemia): 65.5 µM
TGI (MCF7 breast): 54.3 µM
TGI (OVCAR-5 ovarian): > 100 µM
TGI (EKVX NSCLC): > 100 µM
TGI (SK-MEL-2 melanoma): 42.1 µM
TGI (OVCAR-4 ovarian): > 100 µM
TGI (SF-539 CNS): 61.1 µM
TGI (OVCAR-8 ovarian): > 100 µM
TGI (BT-549 breast): > 100 µM

O=C1c2cn[nH]c2N=C(Nc2ccccc2)C1N=Cc1ccc([N+](=O)[O-])cc1 (stereo not drawn)
TGI (SF-268 CNS): > 10 µM
TGI (KM12 colon): > 10 µM
TGI (HCT-116 colon): > 10 µM
TGI (U251 CNS): > 10 µM
TGI (HL-60(TB) leukemia): > 10 µM
TGI (UO-31 renal): > 10 µM
TGI (MCF7 breast): > 10 µM
TGI (OVCAR-5 ovarian): > 10 µM
TGI (EKVX NSCLC): > 10 µM
TGI (OVCAR-4 ovarian): > 10 µM
TGI (SF-539 CNS): > 10 µM
TGI (OVCAR-8 ovarian): > 10 µM
TGI (BT-549 breast): > 10 µM

CN(C)/C=C/c1c2c(nc3ccccc13)C(=O)c1cccnc1C2=O
TGI (RXF 393 renal): 3.48 µM
TGI (MDA-MB-231 breast): > 100 µM
TGI (SF-268 CNS): 4.02 µM
TGI (KM12 colon): 1.56 µM
TGI (HCT-116 colon): 0.697 µM
TGI (U251 CNS): 5.9 µM
TGI (UACC-62 melanoma): 1.25 µM
TGI (HL-60(TB) leukemia): 2.53 µM
TGI (UO-31 renal): 3.02 µM
TGI (OVCAR-5 ovarian): 3.95 µM
TGI (EKVX NSCLC): 22.9 µM
TGI (SK-MEL-2 melanoma): 4.1 µM
TGI (OVCAR-4 ovarian): 4.01 µM
TGI (SF-539 CNS): 1.21 µM
TGI (OVCAR-8 ovarian): 3.2 µM
TGI (BT-549 breast): 1.6 µM

CC(ON1[C@](C)(c2ccccc2)CC[C@@]1(C)c1ccccc1)c1ccccc1 (stereo partly drawn)
TGI (RXF 393 renal): 46 µM
TGI (MDA-MB-231 breast): > 100 µM
TGI (SF-268 CNS): > 100 µM
TGI (KM12 colon): > 100 µM
TGI (HCT-116 colon): > 100 µM
TGI (U251 CNS): > 100 µM
TGI (HL-60(TB) leukemia): 61.5 µM
TGI (UO-31 renal): > 100 µM
TGI (OVCAR-5 ovarian): > 100 µM
TGI (EKVX NSCLC): 77.9 µM
TGI (SK-MEL-2 melanoma): 50.5 µM
TGI (OVCAR-4 ovarian): > 100 µM
TGI (SF-539 CNS): > 100 µM
TGI (OVCAR-8 ovarian): > 100 µM
TGI (BT-549 breast): 42.2 µM

C1=CCC[C@@H]2CN3CCCC/C=C\CCCC[C@H]4C[C@H](CN(CCCCCCCC1)C4)[C@H]2CC3
TGI (MDA-MB-231 breast): 16.4 µM
TGI (SF-268 CNS): 21.3 µM
TGI (KM12 colon): 15.6 µM
TGI (HCT-116 colon): 16.3 µM
TGI (U251 CNS): 15.4 µM
TGI (UACC-62 melanoma): 16.9 µM
TGI (HL-60(TB) leukemia): 28.4 µM
TGI (MCF7 breast): 16.4 µM
TGI (OVCAR-5 ovarian): 23.7 µM
TGI (EKVX NSCLC): 21.6 µM
TGI (SK-MEL-2 melanoma): 15.9 µM
TGI (OVCAR-4 ovarian): 26.8 µM
TGI (SF-539 CNS): 14.9 µM
TGI (OVCAR-8 ovarian): 17.5 µM
TGI (BT-549 breast): 29.8 µM

C=CCc1cccc2cc(C(=O)Nc3ccc(C)cc3)c(=N)oc12
TGI (RXF 393 renal): > 100 µM
TGI (MDA-MB-231 breast): > 100 µM
TGI (SF-268 CNS): > 100 µM
TGI (KM12 colon): > 100 µM
TGI (HCT-116 colon): > 100 µM
TGI (U251 CNS): > 100 µM
TGI (UACC-62 melanoma): > 100 µM
TGI (HL-60(TB) leukemia): > 100 µM
TGI (MCF7 breast): > 100 µM
TGI (OVCAR-5 ovarian): > 100 µM
TGI (EKVX NSCLC): > 100 µM
TGI (SK-MEL-2 melanoma): > 100 µM
TGI (OVCAR-4 ovarian): > 100 µM
TGI (OVCAR-8 ovarian): > 100 µM
TGI (BT-549 breast): > 100 µM
